The numbers were not newly measured in paper PMC5384962, “First-in-human studies of seletalisib, an orally bioavailable small-molecule PI3Kδ inhibitor for the treatment of immune and inflammatory diseases” (European Journal of Clinical Pharmacology, 2017), which cites them from elsewhere.

On the set-up of the data set: method as in ref 29 = [29]; 29. Infinity Pharmaceuticals (2015) Press release: Infinity reports topline results from Phase 2 study of duvelisib in rheumatoid arthritis. To be noted: patients with moderate-to-severe RA; cited from earlier work.

Turning to `C[C@H](Nc1ncnc2nc[nH]c12)c1cc2cccc(Cl)c2c(=O)n1-c1ccccc1` [duvelisib], the “phase II primary endpoint (ACR20 at week 12)” value was “failed to meet its phase II study primary endpoint”.
